Test results from publication PMC10302398, “Mechanistic Insights into the Antibiofilm Mode of Action of Ellagic Acid” (Pharmaceutics, 2023).

Experiments:
[1] = target: T1, WrbA (NADH:quinone oxidoreductase WrbA; WrbAJW) (Escherichia coli, UniProt P0A8G6); experiment: MST (Kd […]); also SPR (Kd […]) and NADH:DCPIP oxidoreductase inhibition (IC50 […]); format: binding
[2] = target: T1, WrbA (NADH:quinone oxidoreductase WrbA; WrbAJW); experiment: NADH:DCPIP oxidoreductase activity assay of purified WrbAJW; format: biochemical

T1 sequence (P0A8G6 2-198): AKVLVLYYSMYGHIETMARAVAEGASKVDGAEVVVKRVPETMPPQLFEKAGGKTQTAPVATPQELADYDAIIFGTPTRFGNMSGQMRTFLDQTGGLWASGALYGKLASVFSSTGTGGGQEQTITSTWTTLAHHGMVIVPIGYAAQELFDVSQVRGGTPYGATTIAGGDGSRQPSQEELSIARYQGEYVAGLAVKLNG

Structure (SMILES)	Kd [1]	IC50 [2]
O=c1oc2c(O)c(O)cc3c(=O)oc4c(O)c(O)cc1c4c23 [EA, ellagic acid]	0.0015 ± 0.0004 mM	
O=C(O)c1ccccc1O [SA, salicylic acid]		7.85 ± 2.65 mM
